In patent US9068949B2, “System and method for multiplex spectroscopic imaging” (Purdue Research Foundation, priority 2013, dated 2015):

Tested on: intact mouse ear
Test: DMSO penetration into intact mouse ear monitored by multiplex SRS imaging with MCR analysis
Format: in vivo
Details: DMSO applied to intact mouse ear
Experimental: In order to reduce ambiguity associated with MCR decomposition, a data augmentation matrix composed of repeating reference spectra, if needed, can be added to the spectral dataset D. The enhanced weight on pure reference spectra permits the MCR algorithm to selectively recover concentration profiles for corresponding Raman bands. An experiment was performed to test this. For tissue penetration data, pure DMSO spectrum and lipid spectrum were provided as initial estimations (reference spectra) for MCR analysis. A data augmentation matrix including reference spectra of DMSO and lipid was added to the spectral dataset in order to reduce ambiguity. For analysis of aqueous solutions of DMSO, a data augmentation matrix composed of reference spectra of DMSO was added to the spectral dataset in order to reduce MCR's ambiguity. A non-negativity constraint was used during the iterations.
FIGS. 10A, 10B, 11A, 11B, and 12 show experimental data of SRS imaging. Various aspects of parallel detection herein advantageously provide a speed of acquiring a spectrum at 30 μs time scale, or over 30,000 spectra per second. For imaging, this scheme avoids spectral profile distortion induced by sample movement, thus enabling observation of target molecules in a highly dynamic system. […] Every three minutes, one spectroscopic SRL image was acquired at the speed of 3 s per frame of 200×200 pixels. Importantly, although the C—H Raman spectra of DMSO and lipid are completely overlapped, spectroscopic SRS imaging, followed by employing MCR analysis as described above, permitted determining concentration maps of lipids and DMSO over time.
The scale bar in the 5-minute image in FIG. 10A is 20 μm. The arrow near the center of the 32-minute image in FIG. 10A indicates the location at which concentrations were measured for FIG. 12, discussed below.
The temporal dynamics of DMSO (circles) and lipid (squares) concentrations are shown. The curve represents fitting by a diffusion model. […]

- structure of the fat cells after DMSO application (imaged up to 32 minutes): remained intact
- DMSO penetration into the adipose tissue (lipid-abundant layer ~50 μm beneath the skin surface, in the first 5 min): Very small amounts
Compound: C[S+](C)[O-] [DMSO, dimethyl sulfoxide]
- distribution of DMSO in the adipose tissue (lipid-abundant layer ~50 μm beneath the skin surface, after 30 min): inter-cell distribution of DMSO was observed
